Literature values in patent US20200016107A1, “COMPOSITION AND METHOD FOR THE TOPICAL TREATMENT OF SEVERE ACNE” (CENTRO INTTERNACIONAL DE COSMIATRÍA, S.A.P.I. DE C.V., priority 2017, published 2020).

System: sebaceous gland
Conditions: oral administration

SMILES: CC1=C(/C=C/C(C)=C/C=C/C(C)=C\C(=O)O)C(C)(C)CCC1 [13-cis-retinoic acid]
- effect on sebaceous gland secretion: almost completely suppresses this secretion
- patients with marked improvement: ~100%
